What was measured:
Assay type in all cases: biochemical
Aurora2 kinase = molecular target: T1, Aurora2 kinase (Homo sapiens, UniProt O14965); experiment: Aurora2 kinase radioactivity scintillation assay using nickel chelate (NuMA substrate); details: 10 μM; for inhibition at 10 µM: read-out: Aurora2 % inhib at 10 μM
T1 construct: A complete recombinant Aurora2 enzyme; His tag (N); made in house; host or cells: E. coli
T1 sequence (O14965 1-403): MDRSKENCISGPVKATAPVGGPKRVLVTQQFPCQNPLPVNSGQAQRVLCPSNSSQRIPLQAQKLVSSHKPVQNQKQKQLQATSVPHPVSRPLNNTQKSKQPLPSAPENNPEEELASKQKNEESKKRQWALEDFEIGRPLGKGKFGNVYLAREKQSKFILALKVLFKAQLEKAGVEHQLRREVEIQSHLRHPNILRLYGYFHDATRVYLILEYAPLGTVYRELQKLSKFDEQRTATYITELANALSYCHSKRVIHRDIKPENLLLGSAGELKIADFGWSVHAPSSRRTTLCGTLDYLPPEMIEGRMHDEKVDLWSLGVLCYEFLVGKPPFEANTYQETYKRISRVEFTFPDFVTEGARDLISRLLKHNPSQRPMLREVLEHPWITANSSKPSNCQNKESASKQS
Procedure: The inhibitory effect of compounds with respect to the Aurora2 kinase is determined with a radioactivity scintillation assay using nickel chelate.
A complete recombinant Aurora2 enzyme, the N-terminal end of which was labeled with histidine, was expressed in E. coli and purified to a quality close to homogeneity.
The C-terminal fragment (Q1687-H2101) of a NuMA (Nuclear protein that associates with the Mitotic Apparatus) expressed in E. coli, and the N-terminal end of which was labeled with histidine, was purified by nickel chelate chromatography and used as substrate in the Aurora2 kinase assay. In order to determine the kinase activity, the NuMA substrate is equilibrated by chromatography on a Pharmacia PD10 column, in a buffer (50 mM Tris HCl, pH7.5, 50 mM NaCl, 10 mM MgCl2) to which 10% (v/v) of glycerol and 0.05% (w/v) of NP40 have been added.
The kinase acivitity of Aurora2 is measured by scintillation with nickel chelate (New England Nuclear, model SMP107). Each well contains 100 μl of the following solution: 0.02 μM of Aurora2; 0.5 μM of NuMA substrate; 1 μM of ATP to which 0.5 μCi of ATP-[^33P] has been added. The solutions are incubated for 30 minutes at 37° C. The assay buffer is then removed and the wells are rinsed twice with 300 μl of kinase buffer. The radioactivity is measured in each well using a Packard Model Top Count NXT device.
The background noise is deduced from the measurement of radioactivity by measuring, in duplicate, in wells containing the radioactive ATP alone containing buffered kinase treated in the same way as the other samples.
The activity of the control is determined by measuring, in duplicate, the radioactivity in the complete assay mixture (ATP, Aurora2 and the NuMA substrate) in the absence of test compound.
The inhibition of the Aurora2 with a compound of the invention is expressed as percentage inhibition of the control activity in the absence of test compound. Staurosporine is added to each plate as an inhibition control.

human FAK = molecular target: T2, human FAK (Homo sapiens, UniProt Q05397); experiment: FAK autophosphorylation inhibition, time resolved fluorescence (HTRF) assay; details: 10 μM (values without asterisk); for inhibition at 10 µM: read-out: FAK % inhib at 10 μM
T2 construct: The complete cDNA of human FAK; made in house; host or cells: baculovirus expression system (vector pFastBac HTc)
Procedure: The inhibitory activity of the compounds on FAK is determined by measuring the inhibition of the autophosphorylation of the enzyme using a time resolved fluorescence (HTRF) assay.
The complete cDNA of human FAK, the N-terminal end of which was labeled with histidine, was cloned into a baculovirus expression vector pFastBac HTc. The protein was expressed and purified to approximately 70% homogeneity.
The kinase activity is determined by incubating the enzyme (6.6 μg/ml) with various concentrations of test compound in a 50 mM Hepes buffer, pH=7.2, containing 10 mM MgCl2, 100 μM Na3VO4 and 15 μM d'ATP for 1 hour at 37° C. The enzyme reaction is stopped by adding Hepes buffer, pH=7.0, containing […], 133 mM EDTA and 0.1% BSA, and the labeling is carried out, over 1 to 2 hours at ambient temperature, by adding to this buffer an anti-Histidine antibody labeled with XL665 and a monoclonal antibody phosphospecific for tyrosine, conjugated to europium cryptate (Eu-K). The characteristics of the two fluorophores are available in G. Mathis et al., Anticancer Research, 1997, 17, pages 3011-3014. The transfer of energy from the excited europium cryptate to the XL665 acceptor is proportional to the degree of autophosphorylation of FAK. The long-lived signal specific for XL-665 is measured in a Packard Discovery plate counter. All the assays are carried out in duplicate and the mean of the two assays is calculated. The inhibition of the FAK autophosphorylation activity with compounds of the invention is expressed as percentage inhibition compared to a control whose activity is measured in the absence of test compound. The [signal at 665 nm/signal at 620 nm] ratio is used for the calculation of the % inhibition.

human KDR enzyme = molecular target: T3, human KDR enzyme (Homo sapiens, UniProt P35968); experiment: KDR substrate (PLCγ) phosphorylation, scintillation assay; details: 10 μM; for inhibition at 10 µM: read-out: KDR % inhib at 10 μM
T3 construct: The cytoplasmic domain of the human KDR enzyme; GST; made in house; host or cells: SF21 insect cells (baculovirus)
Procedure: The inhibitory effect of the compounds is determined in an assay of substrate phosphorylation by the KDR enzyme in vitro using a scintillation technique (96-well plate, NEN).
The cytoplasmic domain of the human KDR enzyme was cloned in the form of a GST fusion into the baculovirus expression vector pFastBac. The protein was expressed in SF21 cells and purified to approximately 60% homogeneity.
The KDR kinase activity is measured in 20 mM MOPS, 10 mM MgCl2, 10 mM MnCl2, 1 mM DTT, 2.5 mM EGTA, 10 mM β-glycerophosphate, pH=7.2, in the presence of 10 mM MgCl2, 100 μM Na3VO4, 1 mM NaF. 10 μl of the compound are added to 70 μl of kinase buffer containing 100 ng of KDR enzyme at 4° C. The reaction is triggered by adding 20 μl of solution containing 2 μg of substrate (SH2-SH3 fragment of PLCγ expressed in the form of a GST fusion protein), 2 μCi γ^33P[ATP] and 2 μM cold ATP. After incubation for 1 hour at 37° C., the reaction is stopped by adding 1 volume (100 μl) of 200 mM EDTA. The incubation buffer is removed and the wells are washed three times with 300 μl of PBS. The radioactivity is measured in each well using Top Count NXT radioactivity counter (Packard).
The background noise is determined by measuring the radioactivity in four different wells containing the radioactive ATP and the substrate alone.
A control for total activity is measured in four different wells containing all the reagents (γ^33P-[ATP], KDR and PLCγ substrate) but in the absence of compound.
The inhibition of the KDR activity with the compound of the invention is expressed as percentage inhibition of the control activity determined in the absence of compound.
The compound SU5614 (Calbiochem) (1 μM) is included in each plate as an inhibition control.

T2 sequence (Q05397 whole entry): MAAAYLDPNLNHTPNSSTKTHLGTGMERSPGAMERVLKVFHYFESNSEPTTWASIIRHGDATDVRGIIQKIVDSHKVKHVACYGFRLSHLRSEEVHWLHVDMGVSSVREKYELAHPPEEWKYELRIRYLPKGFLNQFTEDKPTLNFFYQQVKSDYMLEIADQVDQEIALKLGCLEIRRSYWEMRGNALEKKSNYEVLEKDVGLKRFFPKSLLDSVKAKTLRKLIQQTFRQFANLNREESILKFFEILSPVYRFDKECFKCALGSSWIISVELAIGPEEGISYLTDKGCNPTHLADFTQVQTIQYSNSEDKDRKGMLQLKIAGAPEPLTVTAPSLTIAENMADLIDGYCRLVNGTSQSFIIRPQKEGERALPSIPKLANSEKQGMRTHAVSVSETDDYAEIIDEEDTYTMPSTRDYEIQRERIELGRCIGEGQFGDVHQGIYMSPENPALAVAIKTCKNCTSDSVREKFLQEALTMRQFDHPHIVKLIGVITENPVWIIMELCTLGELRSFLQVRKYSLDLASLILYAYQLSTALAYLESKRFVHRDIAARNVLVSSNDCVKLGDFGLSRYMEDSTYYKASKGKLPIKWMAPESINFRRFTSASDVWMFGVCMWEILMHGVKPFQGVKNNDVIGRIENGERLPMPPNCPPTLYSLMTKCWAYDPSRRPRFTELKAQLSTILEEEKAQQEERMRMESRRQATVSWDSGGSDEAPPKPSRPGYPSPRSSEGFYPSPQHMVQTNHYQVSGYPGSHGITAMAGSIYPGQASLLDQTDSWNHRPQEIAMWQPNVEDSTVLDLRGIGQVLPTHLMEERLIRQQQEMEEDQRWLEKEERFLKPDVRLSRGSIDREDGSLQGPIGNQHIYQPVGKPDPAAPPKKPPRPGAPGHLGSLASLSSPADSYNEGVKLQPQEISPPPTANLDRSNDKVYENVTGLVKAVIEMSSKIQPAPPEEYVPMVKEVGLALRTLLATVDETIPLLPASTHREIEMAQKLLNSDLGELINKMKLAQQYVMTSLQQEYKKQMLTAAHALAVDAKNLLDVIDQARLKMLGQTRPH
T3 sequence (P35968 786-1356 limits assumed): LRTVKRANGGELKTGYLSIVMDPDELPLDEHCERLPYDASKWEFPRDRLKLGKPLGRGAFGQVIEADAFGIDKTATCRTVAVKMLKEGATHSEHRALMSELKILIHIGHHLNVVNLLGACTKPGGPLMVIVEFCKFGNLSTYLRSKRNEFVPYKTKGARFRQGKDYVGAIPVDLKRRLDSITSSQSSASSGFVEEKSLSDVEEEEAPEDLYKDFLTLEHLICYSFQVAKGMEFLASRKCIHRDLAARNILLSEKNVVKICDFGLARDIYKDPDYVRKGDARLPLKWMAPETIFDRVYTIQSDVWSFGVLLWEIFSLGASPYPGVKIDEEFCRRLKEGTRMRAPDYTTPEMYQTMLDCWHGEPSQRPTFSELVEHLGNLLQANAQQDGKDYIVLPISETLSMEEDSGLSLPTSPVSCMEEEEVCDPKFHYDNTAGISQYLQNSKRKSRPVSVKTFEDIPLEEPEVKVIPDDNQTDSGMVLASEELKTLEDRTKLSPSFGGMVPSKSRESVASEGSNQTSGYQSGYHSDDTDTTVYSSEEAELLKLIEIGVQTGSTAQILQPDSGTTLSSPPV

inhibition at 10 µM (Aurora2 kinase) [%] | inhibition at 10 µM (human FAK) [%] | inhibition at 10 µM (human KDR enzyme) [%] | Aurora2 % inhib at 10 μM (Aurora2 kinase) [%] | FAK % inhib at 10 μM (human FAK; 10 µM) [%] | KDR % inhib at 10 μM (human KDR enzyme) [%] | Structure (SMILES)
60 | 16 | 55 |  |  |  | CS(=O)(=O)Nc1ccc2[nH]nc(-c3ccccc3)c2c1 [Example 124, N-(3-Phenyl-1H-indazol-5-yl)-methanesulfonamide]
50 | 7 | 58 |  |  |  | O=S(=O)(/C=C/c1ccccc1)Nc1ccc2[nH]nc(-c3ccccc3)c2c1 [Example 126, (E)-2-Phenyl-N-(3-phenyl-1H-indazol-5-yl)-ethylenesulfonamide]
76 | 6 | 13 |  |  |  | CS(=O)(=O)Nc1n[nH]c2ccc(NS(=O)(=O)c3cccc(F)c3)cc12 [Example 27, 3-Fluoro-N-(3-methylsulfonylamino-1H-indazol-5-yl)benzenesulfonamide]
 |  |  | 52 | 8 | 53 | CC(=O)Nc1ccc(S(=O)(=O)Nc2ccc3[nH]nc(-c4ccccc4)c3c2)cc1 [Example 118, N-[4-(3-Phenyl-1H-indazol-5-ylsulfamoyl)phenyl]acetamide]
87 | 55 | 49 |  |  |  | CCCS(=O)(=O)Nc1ccc2[nH]nc(-c3ccccc3)c2c1 [Example 128, N-(3-Phenyl-1H-indazol-5-yl)propanesulfonamide]
78 | 32 | 63 |  |  |  | CCS(=O)(=O)Nc1ccc2[nH]nc(-c3ccccc3)c2c1 [Example 127, N-(3-Phenyl-1H-indazol-5-yl)-ethanesulfonamide]
52 | 36 | 69 |  |  |  | COc1ccc(S(=O)(=O)Nc2ccc3[nH]nc(-c4ccccc4)c3c2)cc1 [Example 120, 4-Methoxy-N-(3-phenyl-1H-indazol-5-yl)-benzenesulfonamide]
86 | 97 | 39 |  |  |  | COc1ccc(Cl)cc1-c1n[nH]c2ccc(NS(=O)(=O)c3ccccc3S(C)(=O)=O)cc12 [Example 215, N-[3-(5-Chloro-2-methoxy-phenyl)-1H-indazol-5-yl]-2-methanesulfonyl-benzenesulfonamide]
84 | 33 | 63 |  |  |  | O=[N+]([O-])c1ccccc1CS(=O)(=O)Nc1ccc2[nH]nc(-c3ccccc3)c2c1 [Example 151, C-(2-Nitrophenyl)-N-(3-phenyl-1H-indazol-5-yl)-methanesulfonamide]
100 | 91 | 100 |  |  |  | O=S(=O)(Nc1ccc2[nH]nc(-c3cc4ccccc4[nH]3)c2c1)c1cccs1 [Example 87, {N-[3-(1H-indol-2-yl)-1H-indazol-5-yl]}thiophene-2-sulfonamide]
38 | 0 | 63 |  |  |  | O=S(=O)(Nc1ccc2[nH]nc(-c3ccccc3)c2c1)c1cccc(-c2ccccc2)c1 [Example 157, N-(3-Phenyl-1H-indazol-5-yl)-biphenyl-3-sulfonamide]
65 | 17 | 56 |  |  |  | O=S(=O)(Cc1ccccc1)Nc1ccc2[nH]nc(-c3ccccc3)c2c1 [Example 125, 1-Phenyl-N-(3-phenyl-1H-indazol-5-yl)-methanesulfonamide]
92 | 84 | 24 |  |  |  | CC(=O)Nc1n[nH]c2ccc(NS(=O)(=O)c3cccc(F)c3)cc12 [Example 28, N-[5-(3-Fluorobenzenesulfonylamino)-1H-indazol-3-yl)acetamide]
65 | 32 | 25 |  |  |  | CC(=O)Nc1ccccc1-c1n[nH]c2ccc(NS(=O)(=O)c3cccc(F)c3)cc12 [Example 47, N-{2-[5-(3-Fluorobenzenesulfonylamino)-1H-indazol-3-yl]phenyl}acetamide]
82 | 3 | 75 |  |  |  | O=S(=O)(Nc1ccc2[nH]nc(-c3ccccc3)c2c1)c1ccc(-c2ccon2)s1 [Example 150, N-(3-Phenyl-1H-indazol-5-yl)-(5-isoxazol-3-ylthiophene)-2-sulfonamide]
65 | 23 | 72 |  |  |  | Cc1ccc(S(=O)(=O)Nc2ccc3[nH]nc(-c4ccccc4)c3c2)cc1 [Example 122, 4-Methyl-N-(3-phenyl-1H-indazol-5-yl)-benzenesulfonamide]
69 | 20 | 81 |  |  |  | O=S(=O)(Nc1ccc2[nH]nc(-c3ccccc3)c2c1)c1ccc(Br)cc1 [Example 116, 4-Bromo-N-(3-phenyl-1H-indazol-5-yl)-benzenesulfonamide]

Structure (SMILES) | inhibition at 10 µM (Aurora2 kinase) [%] | inhibition at 10 µM (human FAK) [%] | inhibition at 10 µM (human KDR enzyme) [%] | Aurora2 % inhib at 10 μM (Aurora2 kinase) [%] | FAK % inhib at 10 μM (human FAK; 10 µM) [%] | KDR % inhib at 10 μM (human KDR enzyme) [%]
CCCCOc1ccc(S(=O)(=O)Nc2ccc3[nH]nc(-c4ccccc4)c3c2)cc1 [Example 145, 4-Butoxy-N-(3-phenyl-1H-indazol-5-yl)-benzenesulfonamide] | 26 | 0 | 14 |  |  | 

Source: US6858638B2, “Substituted indazoles, compositions containing them, method of production and use” (Aventis Pharma S.A., priority 2002, dated 2005)
